# Laboratory results reported in patent US20240092791A1, “DIHYDROFUROPYRIDINE DERIVATIVES AS RHO-KINASE INHIBITORS” (CHIESI FARMACEUTICI S.P.A., priority 2020, published 2024).
# What was measured:
# Rho kinase 1 (ROCK1) = Rho kinase 1 (ROCK1) (Homo sapiens, UniProt Q13464); experiment: In vitro inhibitory activity assay ROCK1 (ADP-Glo); format: biochemical; conditions: ATP 200 μM, Cheng-Prusoff from IC50; read-out: ROCK 1 (Ki, range of activity)
# Method: (§1) The effectiveness of compounds of the present invention to inhibit Rho kinase activity can be determined in a 10 μl assay containing 40 mM Tris pH7.5, 20 mM MgCl2 0.1 mg/mL BSA, 50 μM DTT and 2.5 μM peptide substrate (Myelin Basic Protein) using an ADP-Glo kit (Promega). Compounds were dissolved in DMSO such that the final concentration of DMSO was 1% in the assay. All reactions/incubations are performed at 25° C. Compound (2 ul) and either Rho kinase 1 or 2 (4 μl) were mixed and incubated for 30 mins. Reactions were initiated by addition of ATP (4μ1) such that the final concentration of ATP in the assay was 200 μM. After a 1 hour incubation 10 μl of ADP-Glo Reagent was added and after a further 1 hour incubation 20 ul of Kinase Detection Buffer was added and the mixture incubated for a further 45 minutes. The luminescent signal was measured on a luminometer. […] Compounds were tested in dose-response format and the inhibition of kinase activity was calculated at each concentration of compound. To determine the IC50 (concentration of compound required to inhibit 50% of the enzyme activity) data were fit to a plot of % inhibition vs Log10 compound concentration using a sigmoidal fit with a variable slope and fixing the maximum to 100% and the minimum to 0%. To determine the Ki values the Cheng-Prusoff equation was utilized (Ki=IC50/(1+[S]/Km).
# Rho kinase 2 (ROCK2) = Rho kinase 2 (ROCK2) (Homo sapiens, UniProt O75116); experiment: In vitro inhibitory activity assay ROCK2 (ADP-Glo); format: biochemical; conditions: ATP 200 μM, Cheng-Prusoff from IC50; read-out: ROCK2 (Ki, range of activity)
# Method: as §1
# PKA = PKA (Homo sapiens, UniProt P17612); experiment: In vitro inhibitory activity assay for PKA (ADP-Glo), reported as selectivity ratio vs ROCK2; format: biochemical; conditions: Ki value for PKA divided by Ki value of ROCK2
# Method: The effectiveness of compounds of the present invention to inhibit PKA activity can be determined in a 10 μl assay containing 40 mM Tris pH7.5, 20 mM MgCl2 0.1 mg/ml BSA, 50 μM DTT and 260 μM peptide substrate (kemptide) using an ADP-Glo kit (Promega). Compounds were dissolved in DMSO such that the final concentration of DMSO was 1% in the assay. All reactions/incubations are performed at 25° C. Compound and PKA enzyme (6 μl) were mixed and incubated for 30 mins. Reactions were initiated by addition of ATP (4 μl ) such that the final concentration of ATP in the assay was 10 μM. After a 30 minute incubation 10 μl of ADP-Glo Reagent was added and after a further 1 hour incubation 20 μl of Kinase Detection Buffer was added and the mixture incubated for a further 45 minutes. The luminescent signal was measured on a luminometer. […] Compounds were tested in dose-response format and the inhibition of kinase activity was calculated at each concentration of compound. To determine the IC50 (concentration of compound required to inhibit 50% of the enzyme activity) data were fit to a plot of % inhibition vs Logio compound concentration using a sigmoidal fit with a variable slope and fixing the maximum to 100% and the minimum to 0%. To determine the Ki values the Cheng-Prusoff equation was utilized (Ki=IC50/(1+[S]/Km).
# In vitro inhibitory activities for PKA were reported as selectivity ratio vs. ROCK-2.
# [1] = test system: cch-evoked bronchoconstriction; experiment: Experimental bronchospasm (carbachol-induced bronchoconstriction, Konzett & Roessler); format: in vivo, Male CD Sprague Dawley rats; conditions: for inhibition in vivo at 0.01 mg/kg: dose 10 μg/Kg intratracheal
# Method: Male CD Sprague Dawley rats (220-250 g) were purchased from Charles River Laboratories Italy (Calco, Lecco). Prior to use animals were acclimated for at least 5 days 20 to the local vivarium conditions (room temperature: 20-24° C.; relative humidity: 40-70%), having free access to standard rat chow and softened tap water. All the procedures were performed in animal operating rooms according to ethical guidelines for the conduct of animal research (D. L.vo 116/92).
# Rats were anaesthetized with a combination of anesthetics (Zoletil 20 mg/kg+Xylazine 5 mg/kg, ip) for the i.t. administration. A laryngoscope was moved forward into the mouth to visualize the trachea and guide the insertion of the tip of a custom-made small diameter cannula directly into the trachea and located 1-2 mm above the bifurcation.
# In order to assess the residual inhibitory activity of test compounds 1 hour after their administration, rats were surgically prepared. Body temperature was kept constant at 37° C. by a heated blanket.
# The trachea was cannulated and the lungs were ventilated artificially with a constant volume ventilator (rodent ventilator mod. 7025, Ugo Basile, Comerio, Varese, Italy) at a frequency of 80 strokes/min and at a tidal volume of 10 ml/kg. To avoid spontaneous breathing, the animals were injected intravenously (i.v.) with pancuronium bromide (2 mg/kg).
# Bronchoconstriction was induced by the i.v. injection of carbachol (cch) 80 μg/kg. In control experiments, repeated injections of this dose produced reproducible short-lasting (1-2 min duration) bronchospasms. Bronchoconstriction, quantified as a reduction of tidal volume, was evaluated according to the method described by Konzett & Roessler (1). Systemic blood pressure and changes in airway resistance were monitored with a digital pressure transducer.
# After stabilisation of artificial breathing and blood pressure, animals were injected (i.v.) with cch every 3 min, until 3 stable and reproducible basal responses were obtained. […] The effect of test compounds was 15 expressed as % inhibition of cch-evoked bronchoconstriction in time-matched, vehicle-treated, animals (controls).
# Tested compounds were dissolved in dH2O and 1% Tween-80 or 0,001% HCl and further diluted to target concentrations. Tested compounds were instilled locally into the trachea in a volume of 125 μl.
# All data are presented as mean±s.e.mean. The % inhibition of experimental bronchospasm was calculated comparing the drug-treated with the vehicle-treated control animals. Data analysis was performed using GraphPad Prism software.
# [2] = iv, rat, 1 hour after administration, carbachol 80 μg/kg i.v., read-out: Inhibition % (±s.e. mean) of cch-evoked bronchoconstriction
# Sequence of Rho kinase 1 (ROCK1) (Q13464 whole entry): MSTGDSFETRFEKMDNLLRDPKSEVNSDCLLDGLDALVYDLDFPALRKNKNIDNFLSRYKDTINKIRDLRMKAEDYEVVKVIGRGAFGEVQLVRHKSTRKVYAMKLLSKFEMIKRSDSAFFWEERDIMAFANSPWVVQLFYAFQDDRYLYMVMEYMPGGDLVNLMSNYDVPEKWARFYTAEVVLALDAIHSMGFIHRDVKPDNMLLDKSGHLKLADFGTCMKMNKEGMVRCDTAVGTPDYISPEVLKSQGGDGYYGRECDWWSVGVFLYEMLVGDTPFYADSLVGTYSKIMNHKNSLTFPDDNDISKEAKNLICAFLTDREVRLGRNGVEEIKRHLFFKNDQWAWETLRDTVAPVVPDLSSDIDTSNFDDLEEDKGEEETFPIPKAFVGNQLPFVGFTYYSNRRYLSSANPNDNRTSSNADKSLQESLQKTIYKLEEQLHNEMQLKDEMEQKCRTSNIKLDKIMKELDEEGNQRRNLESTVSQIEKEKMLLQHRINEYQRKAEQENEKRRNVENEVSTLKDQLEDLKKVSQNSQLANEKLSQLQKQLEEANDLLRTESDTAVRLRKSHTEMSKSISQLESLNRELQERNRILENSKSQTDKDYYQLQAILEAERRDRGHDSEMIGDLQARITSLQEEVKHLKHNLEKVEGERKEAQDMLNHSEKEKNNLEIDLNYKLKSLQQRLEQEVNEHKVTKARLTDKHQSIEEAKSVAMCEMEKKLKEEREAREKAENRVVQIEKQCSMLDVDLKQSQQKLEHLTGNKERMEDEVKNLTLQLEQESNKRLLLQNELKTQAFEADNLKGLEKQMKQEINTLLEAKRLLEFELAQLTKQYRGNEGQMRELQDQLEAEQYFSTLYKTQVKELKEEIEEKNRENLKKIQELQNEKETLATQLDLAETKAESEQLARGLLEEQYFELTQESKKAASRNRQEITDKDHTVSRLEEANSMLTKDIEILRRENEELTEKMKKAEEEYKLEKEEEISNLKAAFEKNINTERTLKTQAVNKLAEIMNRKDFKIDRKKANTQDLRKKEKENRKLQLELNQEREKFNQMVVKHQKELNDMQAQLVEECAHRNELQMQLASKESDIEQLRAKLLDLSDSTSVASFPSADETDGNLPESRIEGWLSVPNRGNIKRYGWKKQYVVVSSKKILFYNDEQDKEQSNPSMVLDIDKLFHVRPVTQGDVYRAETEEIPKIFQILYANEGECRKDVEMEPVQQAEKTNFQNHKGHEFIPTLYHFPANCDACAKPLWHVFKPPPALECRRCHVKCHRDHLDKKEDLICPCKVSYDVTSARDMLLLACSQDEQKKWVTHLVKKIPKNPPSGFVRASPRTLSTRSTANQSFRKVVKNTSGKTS
# Sequence of Rho kinase 2 (ROCK2) (O75116 whole entry): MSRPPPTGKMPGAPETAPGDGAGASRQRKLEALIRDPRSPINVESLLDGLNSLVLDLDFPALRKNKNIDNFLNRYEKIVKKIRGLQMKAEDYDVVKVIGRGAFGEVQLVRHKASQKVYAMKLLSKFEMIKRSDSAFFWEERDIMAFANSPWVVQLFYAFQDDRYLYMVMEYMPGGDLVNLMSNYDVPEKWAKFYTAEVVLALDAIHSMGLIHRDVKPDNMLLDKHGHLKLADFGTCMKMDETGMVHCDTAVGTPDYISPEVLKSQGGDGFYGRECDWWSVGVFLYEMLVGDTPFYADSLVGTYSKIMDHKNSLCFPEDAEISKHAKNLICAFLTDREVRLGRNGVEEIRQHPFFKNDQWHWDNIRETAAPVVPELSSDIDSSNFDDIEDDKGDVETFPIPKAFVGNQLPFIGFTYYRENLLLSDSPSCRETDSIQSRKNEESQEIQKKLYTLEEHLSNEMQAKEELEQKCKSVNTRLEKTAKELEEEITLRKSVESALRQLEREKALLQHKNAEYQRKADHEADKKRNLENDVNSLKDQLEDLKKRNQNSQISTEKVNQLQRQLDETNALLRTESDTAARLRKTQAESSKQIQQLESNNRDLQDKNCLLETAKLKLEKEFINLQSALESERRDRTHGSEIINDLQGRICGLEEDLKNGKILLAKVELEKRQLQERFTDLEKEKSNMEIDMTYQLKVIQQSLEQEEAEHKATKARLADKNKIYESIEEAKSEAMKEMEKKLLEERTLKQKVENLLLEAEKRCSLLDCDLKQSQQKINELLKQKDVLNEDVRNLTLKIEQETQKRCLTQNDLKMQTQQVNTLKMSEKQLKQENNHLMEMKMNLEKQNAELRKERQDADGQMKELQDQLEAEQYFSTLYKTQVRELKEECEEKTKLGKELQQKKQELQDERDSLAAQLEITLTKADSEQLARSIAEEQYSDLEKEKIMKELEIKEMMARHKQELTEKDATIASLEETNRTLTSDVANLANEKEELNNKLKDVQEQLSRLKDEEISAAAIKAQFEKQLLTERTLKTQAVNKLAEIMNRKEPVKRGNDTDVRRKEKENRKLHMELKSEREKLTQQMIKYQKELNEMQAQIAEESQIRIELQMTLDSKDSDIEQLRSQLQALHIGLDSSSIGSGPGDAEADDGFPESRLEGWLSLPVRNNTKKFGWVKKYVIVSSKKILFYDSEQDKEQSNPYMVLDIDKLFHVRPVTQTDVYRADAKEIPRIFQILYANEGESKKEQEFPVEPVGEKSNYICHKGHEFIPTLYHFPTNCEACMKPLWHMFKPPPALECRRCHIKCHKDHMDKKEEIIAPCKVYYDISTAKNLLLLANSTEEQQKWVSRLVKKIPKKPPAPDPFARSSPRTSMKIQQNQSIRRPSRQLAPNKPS
Structure (SMILES),Ki (Rho kinase 1 (ROCK1)),Ki (Rho kinase 2 (ROCK2)),Ratio (PKA/ROCK2) (PKA),"inhibition in vivo at 0.01 mg/kg [1, 2]","inhibition in vivo at 0.003 mg/kg ([1]; iv, rat, dose 3 μg/Kg intratracheal, 1 hour after administration, carbachol 80 μg/kg i.v., read-out: Inhibition % (±s.e. mean) of cch-evoked bronchoconstriction)","activity as bronchodilator (in words) ([1]; rat bronchospasm test, internal comparator vs compounds with bulky moiety W)"
"CN1CCN(C)C(COc2ccc(NC(=O)c3cccc(CNc4ncc(-c5ccnc(N)n5)c5c4CCO5)c3)nc2)C1 (single isomer, unassigned) [Example 82, 3-(((7-(2-aminopyrimidin-4-yl)-2,3-dihydrofuro[3,2-c]pyridin-4-yl)amino)methyl)-N-(5-((1,4-dimethylpiperazin-2-yl)methoxy)pyridin-2-yl)benzamide]",≤ 3 nM,≤ 3 nM,*** (ratio≥10),69.7 ± 3.4%,,
"CN1CCN(C)C(COc2ccc(NC(=O)c3cccc(CNc4ncc(-c5ccnc(N)n5)c5c4CCO5)c3)nc2)C1 (single isomer, unassigned) [Example 83, 3-(((7-(2-aminopyrimidin-4-yl)-2,3-dihydrofuro[3,2-c]pyridin-4-yl)amino)methyl)-N-(5-((1,4-dimethylpiperazin-2-yl)methoxy)pyridin-2-yl)benzamide]",≤ 3 nM,≤ 3 nM,*** (ratio≥10),,53.3 ± 4.6%,
"COc1ccc(NC(=O)c2cccc(CNc3ncc(-c4ccnc(N)n4)c4c3CCO4)c2)nc1 [Example 51, 3-(((7-(2-Aminopyrimidin-4-yl)-2,3-dihydrofuro[3,2-c]pyridin-4-yl)amino)methyl)-N-(5-methoxypyridin-2-yl)benzamide]",≤ 3 nM,≤ 3 nM,*** (ratio≥10),3.1 ± 14.8%,,markedly lower activity as bronchodilator
"CN(C)CCOc1ccc(NC(=O)c2cccc(CNc3ncc(-c4ccnc(N)n4)c4c3CCO4)c2)nc1 [Example 52, 3-(((7-(2-aminopyrimidin-4-yl)-2,3-dihydrofuro[3,2-c]pyridin-4-yl)amino)methyl)-N-(5-(2-(dimethylamino)ethoxy)pyridin-2-yl)benzamide]",≤ 3 nM,≤ 3 nM,*** (ratio≥10),51.5 ± 6.2%,,
"CN1CCC(C(=O)N2CCN(c3ccc(NC(=O)c4cccc(CNc5ncc(-c6ccnc(N)n6)c6c5CCO6)c4)nc3)CC2)CC1 [Example 65, 3-(((7-(2-aminopyrimidin-4-yl)-2,3-dihydrofuro[3,2-c]pyridin-4-yl)amino)methyl)-N-(5-(4-(1-methylpiperidine-4-carbonyl)piperazin-1-yl)pyridin-2-yl)benzamide]",≤ 3 nM,≤ 3 nM,*** (ratio≥10),,,
C[C@@H]1CN[C@@H](C)CN1c1ccc(NC(=O)c2cccc(CNc3ncc(-c4ccnc(N)n4)c4c3CCO4)c2)nc1 [Example 67],≤ 3 nM,≤ 3 nM,*** (ratio≥10),,,
"Nc1nccc(-c2cnc(NCc3cccc(C(=O)Nc4ccc(N5C[C@H]6C[C@@H]5CN6)cn4)c3)c3c2OCC3)n1 [Example 68, N-(5-((1R,4R)-2,5-diazabicyclo[2.2.1]heptan-2-yl)pyridin-2-yl)-3-(((7-(2-aminopyrimidin-4-yl)-2,3-dihydrofuro[3,2-c]pyridin-4-yl)amino)methyl)benzamide]",≤ 3 nM,≤ 3 nM,*** (ratio≥10),,,
"Nc1nccc(-c2cnc(NCc3cccc(C(=O)Nc4ccc(N5CCCNCC5)cn4)c3)c3c2OCC3)n1 [Example 72, N-(5-(1,4-diazepan-1-yl)pyridin-2-yl)-3-(((7-(2-aminopyrimidin-4-yl)-2,3-dihydrofuro[3,2-c]pyridin-4-yl)amino)methyl)benzamide]",≤ 3 nM,≤ 3 nM,*** (ratio≥10),,,
"CN(C)CCN(C)c1ccc(NC(=O)c2cccc(CNc3ncc(-c4ccnc(N)n4)c4c3CCO4)c2)nc1 [Example 75, 3-(((7-(2-aminopyrimidin-4-yl)-2,3-dihydrofuro[3,2-c]pyridin-4-yl)amino)methyl)-N-(5-((2-(dimethylamino)ethyl)(methyl)amino)pyridin-2-yl)benzamide]",≤ 3 nM,≤ 3 nM,*** (ratio≥10),,,
"CN1C[C@@H]2C[C@H]1CN2c1ccc(NC(=O)c2cccc(CNc3ncc(-c4ccnc(N)n4)c4c3CCO4)c2)nc1 [Example 76, 3-(((7-(2-aminopyrimidin-4-yl)-2,3-dihydrofuro[3,2-c]pyridin-4-yl)amino)methyl)-N-(5-((1S,4S)-5-methyl-2,5-diazabicyclo[2.2.1]heptan-2-yl)pyridin-2-yl)benzamide]",≤ 3 nM,≤ 3 nM,** (5≤ratio<10),,,
"CN1CC[C@@H]1COc1ccc(NC(=O)c2cccc(CNc3ncc(-c4ccnc(N)n4)c4c3CCO4)c2)nc1 [Example 81, (R)-3-(((7-(2-aminopyrimidin-4-yl)-2,3-dihydrofuro[3,2-c]pyridin-4-yl)amino)methyl)-N-(5-((1-methylazetidin-2-yl)methoxy)pyridin-2-yl)benzamide]",≤ 3 nM,≤ 3 nM,,81.3 ± 7.9%,,
"CNC(=O)c1cccc(CNc2ncc(-c3ccncn3)c3c2CCO3)c1 [Example A, N-Methyl-3-(((7-(pyrimidin-4-yl)-2,3-dihydrofuro[3,2-c]pyridin-4-yl)amino)methyl)benzamide, reference compound]",> 30 nM,> 30 nM,** (5≤ratio<10),,,
"CNC(=O)c1cccc(CNc2ncc(-c3ccnc(N)n3)c3c2OCC3)c1 [Example B, 3-(((4-(2-aminopyrimidin-4-yl)-2,3-dihydrofuro[2,3-c]pyridin-7-yl)amino)methyl)-N-methylbenzamide, reference compound]",> 30 nM,> 30 nM,*** (ratio≥10),,,
"Nc1nccc(-c2cnc(NCc3ccccc3)c3c2OCC3)n1 [Example C, 7-(2-Aminopyrimidin-4-yl)-N-benzyl-2,3-dihydrofuro[3,2-c]pyridin-4-amine, reference compound]",> 30 nM,3 to 30 nM,* (ratio<5),,,
